Results reported in a compilation of properties of binary mixtures (doi:10.1016/j.jct.2020.106150).

Experiment: xn = mol fraction of the nth substance listed
Conditions: 100 kPa

O=Cc1ccco1 + CCCC[P+](C)(CCCC)CCCC.COS(=O)(=O)[O-]
Conditions | speed of sound [m/s] | viscosity [mPa·s]
293.15 K, x2 = 0 | 1459.1 | 1.62
293.15 K, x2 = 0.062 | 1482.3 | 2.5
293.15 K, x2 = 0.142 | 1505.9 | 21.3
293.15 K, x2 = 0.249 | 1527 | 65
293.15 K, x2 = 0.317 | 1541.2 | 95
293.15 K, x2 = 0.399 | 1556.3 | 134
293.15 K, x2 = 0.499 | 1563.9 | 190
293.15 K, x2 = 0.732 | 1568.5 | 400
293.15 K, x2 = 0.823 | 1566.1 | 500
293.15 K, x2 = 0.863 | 1565.4 | 560
293.15 K, x2 = 0.91 | 1563.4 | 610
293.15 K, x2 = 0.951 | 1563.1 | 660
298.15 K, x2 = 0 | 1440.2 | 1.48
298.15 K, x2 = 0.142 | 1489.6 | 10.1
298.15 K, x2 = 0.191 | 1499.2 | 17.1
298.15 K, x2 = 0.249 | 1511.1 | 31
298.15 K, x2 = 0.317 | 1525.5 | 47
298.15 K, x2 = 0.399 | 1540.4 | 72
298.15 K, x2 = 0.499 | 1548.6 | 101
298.15 K, x2 = 0.624 | 1555.2 | 160
298.15 K, x2 = 0.732 | 1552.5 | 270
298.15 K, x2 = 0.823 | 1550.2 | 350
298.15 K, x2 = 0.863 | 1549.3 | 390
298.15 K, x2 = 0.91 | 1547.2 | 440
298.15 K, x2 = 0.951 | 1546.2 | 480
303.15 K, x2 = 0 | 1422 | 1.36
303.15 K, x2 = 0.062 | 1454.5 | 2.14
303.15 K, x2 = 0.1 | 1463 | 3.1
303.15 K, x2 = 0.142 | 1472.1 | 4.1
303.15 K, x2 = 0.249 | 1493.1 | 8.7
303.15 K, x2 = 0.317 | 1508.5 | 25
303.15 K, x2 = 0.399 | 1524.3 | 40
303.15 K, x2 = 0.499 | 1534.6 | 55
303.15 K, x2 = 0.624 | 1539.8 | 93
303.15 K, x2 = 0.823 | 1533.5 | 260
303.15 K, x2 = 0.863 | 1532.5 | 290
303.15 K, x2 = 0.91 | 1531.2 | 320
303.15 K, x2 = 0.951 | 1530.1 | 350
308.15 K, x2 = 0 | 1403.8 | 1.26
308.15 K, x2 = 0.062 | 1434 | 1.99
308.15 K, x2 = 0.1 | 1443.5 | 3
308.15 K, x2 = 0.191 | 1466.5 | 5.6
308.15 K, x2 = 0.249 | 1476.3 | 7.7
308.15 K, x2 = 0.399 | 1508.3 | 20.4
308.15 K, x2 = 0.499 | 1515.9 | 34
308.15 K, x2 = 0.732 | 1521.5 | 133
308.15 K, x2 = 0.823 | 1519.8 | 194
308.15 K, x2 = 0.863 | 1517.1 | 217
308.15 K, x2 = 0.91 | 1516.5 | 241
308.15 K, x2 = 0.951 | 1515.5 | 270
313.15 K, x2 = 0.062 | 1418.8 | 1.76
313.15 K, x2 = 0.142 | 1438.3 | 3.6
313.15 K, x2 = 0.191 | 1449 | 5.6
313.15 K, x2 = 0.249 | 1459.5 | 6.7
313.15 K, x2 = 0.317 | 1475.5 | 8.8
313.15 K, x2 = 0.399 | 1492.4 | 11.5
313.15 K, x2 = 0.499 | 1501.5 | 17.9
313.15 K, x2 = 0.624 | 1509.5 | 43
313.15 K, x2 = 0.732 | 1505.7 | 101
313.15 K, x2 = 0.823 | 1504.6 | 146
313.15 K, x2 = 0.863 | 1502.3 | 165
313.15 K, x2 = 0.91 | 1500.7 | 185
313.15 K, x2 = 0.951 | 1500.5 | 201
318.15 K, x2 = 0 | 1367.8 | 1.09
318.15 K, x2 = 0.1 | 1410.1 | 2.5
318.15 K, x2 = 0.191 | 1431.3 | 4.3
318.15 K, x2 = 0.317 | 1457.6 | 7
318.15 K, x2 = 0.399 | 1476.4 | 9.9
318.15 K, x2 = 0.624 | 1494.6 | 32
318.15 K, x2 = 0.732 | 1493.4 | 81
318.15 K, x2 = 0.823 | 1489.6 | 116
318.15 K, x2 = 0.863 | 1488.6 | 130
318.15 K, x2 = 0.91 | 1488.2 | 144
318.15 K, x2 = 0.951 | 1486.5 | 158
323.15 K, x2 = 0 | 1349.9 | 1.02
323.15 K, x2 = 0.062 | 1386 | 1.53
323.15 K, x2 = 0.1 | 1394.5 | 2.3
323.15 K, x2 = 0.142 | 1402.1 | 3.3
323.15 K, x2 = 0.317 | 1443.6 | 6
323.15 K, x2 = 0.399 | 1460.6 | 8.6
323.15 K, x2 = 0.499 | 1469.8 | 18.6
323.15 K, x2 = 0.624 | 1479.9 | 27
323.15 K, x2 = 0.732 | 1479.9 | 73
323.15 K, x2 = 0.823 | 1478.2 | 99
323.15 K, x2 = 0.863 | 1477.2 | 110
323.15 K, x2 = 0.91 | 1476.1 | 117
323.15 K, x2 = 0.951 | 1474.6 | 126

CCCC[P+](C)(CCCC)CCCC.COS(=O)(=O)[O-] + O=Cc1ccco1
x1 = 1
Conditions | speed of sound [m/s] | viscosity [mPa·s]
293.15 K | 1563.7 | 730
298.15 K | 1546.1 | 520
303.15 K | 1529.7 | 380
308.15 K | 1514.3 | 290
313.15 K | 1499.2 | 217
318.15 K | 1485.7 | 169
323.15 K | 1472.1 | 133
